O=C1C[C@@H](c2ccc(O)cc2)Oc2cc(O)cc(O)c21
solubility (mole fraction) (in ethyl acetate, 288.15 K): 0.00998
solubility (mole fraction) (in ethyl acetate, 293.15 K): 0.0133
solubility (mole fraction) (in ethyl acetate, 298.15 K): 0.0154
solubility (mole fraction) (in ethyl acetate, 303.15 K): 0.0171
solubility (mole fraction) (in ethyl acetate, 308.15 K): 0.0191
solubility (mole fraction) (in ethyl acetate, 313.15 K): 0.0215
solubility (mole fraction) (in ethyl acetate, 318.15 K): 0.0244
solubility (mole fraction) (in ethyl acetate, 323.15 K): 0.027
solubility (mole fraction) (in ethyl acetate, 328.15 K): 0.0293
solubility (mole fraction) (in isopropanol, 288.15 K): 0.0101
solubility (mole fraction) (in isopropanol, 293.15 K): 0.0116
solubility (mole fraction) (in isopropanol, 298.15 K): 0.0141
solubility (mole fraction) (in isopropanol, 303.15 K): 0.0161
solubility (mole fraction) (in isopropanol, 308.15 K): 0.0185
solubility (mole fraction) (in isopropanol, 313.15 K): 0.0204
solubility (mole fraction) (in isopropanol, 318.15 K): 0.0218
solubility (mole fraction) (in isopropanol, 323.15 K): 0.0252
solubility (mole fraction) (in isopropanol, 328.15 K): 0.0264
solubility (mole fraction) (in methanol, 288.15 K): 0.00875
solubility (mole fraction) (in methanol, 293.15 K): 0.0094
solubility (mole fraction) (in methanol, 298.15 K): 0.00991
solubility (mole fraction) (in methanol, 303.15 K): 0.0105
solubility (mole fraction) (in methanol, 308.15 K): 0.0114
solubility (mole fraction) (in methanol, 313.15 K): 0.0144
solubility (mole fraction) (in methanol, 318.15 K): 0.0173
solubility (mole fraction) (in methanol, 323.15 K): 0.0187
solubility (mole fraction) (in methanol, 328.15 K): 0.0205
solubility (mole fraction) (in n-butanol, 288.15 K): 0.000972
solubility (mole fraction) (in n-butanol, 293.15 K): 0.00137
solubility (mole fraction) (in n-butanol, 298.15 K): 0.00175
solubility (mole fraction) (in n-butanol, 303.15 K): 0.00215
solubility (mole fraction) (in n-butanol, 308.15 K): 0.00259
solubility (mole fraction) (in n-butanol, 313.15 K): 0.00299
solubility (mole fraction) (in n-butanol, 318.15 K): 0.00344
solubility (mole fraction) (in n-butanol, 323.15 K): 0.00388
solubility (mole fraction) (in n-butanol, 328.15 K): 0.0042
solubility (mole fraction) (in n-hexane, 288.15 K): 2.92e-06
solubility (mole fraction) (in n-hexane, 293.15 K): 3.7e-06
solubility (mole fraction) (in n-hexane, 298.15 K): 4.71e-06
solubility (mole fraction) (in n-hexane, 303.15 K): 5.42e-06
solubility (mole fraction) (in n-hexane, 308.15 K): 6.46e-06
solubility (mole fraction) (in n-hexane, 313.15 K): 7.17e-06
solubility (mole fraction) (in n-hexane, 318.15 K): 7.73e-06
solubility (mole fraction) (in n-hexane, 323.15 K): 8.69e-06
solubility (mole fraction) (in n-hexane, 328.15 K): 9.09e-06

C[C@@H]1O[C@@H](O[C@H]2[C@H](Oc3cc(O)c4c(c3)O[C@H](c3ccc(O)cc3)CC4=O)O[C@H](CO)[C@@H](O)[C@@H]2O)[C@H](O)[C@H](O)[C@H]1O
solubility (mole fraction) (in ethyl acetate, 288.15 K): 0.000184
solubility (mole fraction) (in ethyl acetate, 293.15 K): 0.000248
solubility (mole fraction) (in ethyl acetate, 298.15 K): 0.00031
solubility (mole fraction) (in ethyl acetate, 303.15 K): 0.00035
solubility (mole fraction) (in ethyl acetate, 308.15 K): 0.000404
solubility (mole fraction) (in ethyl acetate, 313.15 K): 0.000458
solubility (mole fraction) (in ethyl acetate, 318.15 K): 0.000513
solubility (mole fraction) (in ethyl acetate, 323.15 K): 0.000594
solubility (mole fraction) (in ethyl acetate, 328.15 K): 0.000646
solubility (mole fraction) (in isopropanol, 288.15 K): 1.26e-05
solubility (mole fraction) (in isopropanol, 293.15 K): 1.59e-05
solubility (mole fraction) (in isopropanol, 298.15 K): 2.1e-05
solubility (mole fraction) (in isopropanol, 303.15 K): 2.46e-05
solubility (mole fraction) (in isopropanol, 308.15 K): 2.97e-05
solubility (mole fraction) (in isopropanol, 313.15 K): 3.34e-05
solubility (mole fraction) (in isopropanol, 318.15 K): 3.75e-05
solubility (mole fraction) (in isopropanol, 323.15 K): 4.29e-05
solubility (mole fraction) (in isopropanol, 328.15 K): 4.79e-05
solubility (mole fraction) (in methanol, 288.15 K): 0.00158
solubility (mole fraction) (in methanol, 293.15 K): 0.00168
solubility (mole fraction) (in methanol, 298.15 K): 0.00197
solubility (mole fraction) (in methanol, 303.15 K): 0.00224
solubility (mole fraction) (in methanol, 308.15 K): 0.00264
solubility (mole fraction) (in methanol, 313.15 K): 0.00291
solubility (mole fraction) (in methanol, 318.15 K): 0.00322
solubility (mole fraction) (in methanol, 323.15 K): 0.00359
solubility (mole fraction) (in methanol, 328.15 K): 0.00389
solubility (mole fraction) (in n-butanol, 288.15 K): 4.85e-05
solubility (mole fraction) (in n-butanol, 293.15 K): 6.34e-05
solubility (mole fraction) (in n-butanol, 298.15 K): 7.46e-05
solubility (mole fraction) (in n-butanol, 303.15 K): 0.000105
solubility (mole fraction) (in n-butanol, 308.15 K): 0.000157
solubility (mole fraction) (in n-butanol, 313.15 K): 0.000218
solubility (mole fraction) (in n-butanol, 318.15 K): 0.000285
solubility (mole fraction) (in n-butanol, 323.15 K): 0.000345
solubility (mole fraction) (in n-butanol, 328.15 K): 0.000391
solubility (mole fraction) (in n-hexane, 288.15 K): 9.97e-08
solubility (mole fraction) (in n-hexane, 293.15 K): 1.39e-07
solubility (mole fraction) (in n-hexane, 298.15 K): 1.75e-07
solubility (mole fraction) (in n-hexane, 303.15 K): 2.21e-07
solubility (mole fraction) (in n-hexane, 308.15 K): 2.63e-07
solubility (mole fraction) (in n-hexane, 313.15 K): 3.12e-07
solubility (mole fraction) (in n-hexane, 318.15 K): 3.6e-07
solubility (mole fraction) (in n-hexane, 323.15 K): 4.04e-07
solubility (mole fraction) (in n-hexane, 328.15 K): 4.55e-07

— BigSolDB 2.1
